We go through one substance from patent publication US9345669B2, “Biodegradable natural films based on co-products derived from industrial-scale seed-treatment processes” (Sojasun Technologies, priority 2011, dated 2016).

This data set can be described thus: Diffusion of isoflavones from films into an agar plate (gelose) matrix simulating the vaginal mucous membrane. It is filed as physicochemical. The text has this: FIG. 1 is a flowchart pertaining to the protocol for evaluating the diffusion of isoflavones made out of films according to the invention towards a matrix simulating the vaginal mucous membrane;
The films according to the present invention meeting the formulations 1 to 6 described here above were associated with an extract obtained from soybeans. The extract is incorporated directly into the mixture so that its content is 4.2% by mass. This extract has the particular feature of being rich in isoflavones and especially having high daidzin and genistin content.
The tests explained here below show the possible use of films according to the invention for making products for administering active ingredients by diffusion of these ingredients from the film towards the vaginal mucous membrane.
In these tests, in order to model the vaginal mucous membrane, an agar plate with an Agar concentration of 30 g/l was used.
The diffusion of daidzin and genistin in the lower agar plate and the upper agar plate was studied with films complying with the formulations 1, 2 and 3 described here above. The results of this study are indicated in the two graphs of FIG. 2.
The influence of the proportion by weight of film-forming agent (sodium caseinate (NaCAS)) in films according to the invention meeting the formulations 5, 2 and 4 described here above on the diffusion of daidzin (a) and genistin (b) has also been studied. The results of this study are indicated in the two graphs shown in FIG. 3 in which the concentration in isoflavones diffused has been related in terms of percentage to the case where the entire active ingredient would have been diffused.
The hydrophobic agent chosen for this study is soy lecithin. A suspension of this compound was also prepared using 5 g of soy lecithin powder mixed with 10 mL of ultra-pure water. The films complying with the formulations 1 and 2 were then coated with this suspension (on the upper and lower faces) and then placed on gelose in order to carry out migration tests.
Two rates of plasticization were examined, corresponding to the formulations 4 and 5 of the films according to the invention described here above.

In the case of Daidzin, the “concentration in gelose under equilibrium” value (films of formulations 1, 2 and 3 with 4.2% soybean extract, agar 30 g/l (FIG. 2)) is “about 10 μg/mL”. Where the note is “films of formulations 5, 2 and 4 (varied proportion of sodium caseinate), % of total active ingredient (FIG. 3)”, the “isoflavone diffused towards the gelose after 24 hours of contact” value is recorded as “more than 90%”. In addition, the “isoflavone diffused in the gelose after 48 hours of contact, with soy lecithin coating” value (formulations 1 and 2 coated with soy lecithin on upper and lower faces (FIG. 4)) is on record as 40%. The “isoflavone diffused after 30 hours, plasticization rate 20%” value (plasticization rate 20% glycerol (FIG. 5)) was 90%. For the same substance, for the setting “plasticization rate 30% glycerol (FIG. 5)”, the “isoflavone diffused after 30 hours, glycerol rate 30% by mass” value is recorded as about 100%.
